According to patent US20170190671A1, “BIS(ARYL)CATECHOL DERIVATIVES AS HERBICIDES” (E I DU PONT DE NEMOURS AND COMPANY, priority 2014, published 2017):

Experiments:
Experiment in all cases: Test C preemergence
Format in all cases: in vivo
[1] = test system: Italian ryegrass (Lolium multiflorum); settings: Lolium multiflorum, pre-emergence, 336 h, scale 0 to 100, read-out: Plant response rating, Ryegrass, Italian
Outline: (§1)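 Seeds in loam-sand soil were treated preemergence, and plants at the 1- to 4-leaf stage (2-18 cm) in peat-based medium were sprayed postemergence, with test chemicals in a non-phytotoxic solvent containing surfactant. After 13-15 days in a greenhouse, response was rated visually against controls from 0 (no effect) to 100 (complete control).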

[2] = test system: barnyardgrass (Echinochloa crus-galli); settings: Echinochloa crus-galli, pre-emergence, read-out: Plant response rating, Barnyardgrass
Outline: as §1

[3] = test system: blackgrass (Alopecurus myosuroides); settings: Alopecurus myosuroides, pre-emergence, 336 h, scale 0 to 100, read-out: Plant response rating, Blackgrass
Outline: as §1

corn (Zea mays) = settings: Zea mays, pre-emergence, 336 h, scale 0 to 100
Outline: as §1

[4] = test system: giant foxtail (Setaria faberii); settings: Setaria faberi, pre-emergence, 336 h, scale 0 to 100, read-out: Plant response rating, Foxtail, Giant
Outline: as §1

[5] = test system: johnsongrass (Sorghum halepense); settings: Sorghum halepense, pre-emergence, 336 h, scale 0 to 100, read-out: Plant response rating, Johnsongrass
Outline: as §1

[6] = test system: lambsquarters (Chenopodium album); settings: Chenopodium album, pre-emergence, 336 h, scale 0 to 100, read-out: Plant response rating, Lambsquarters
Outline: as §1

[7] = test system: large (Lg) crabgrass (Digitaria sanguinalis); settings: Digitaria sanguinalis, pre-emergence, 336 h, scale 0 to 100, read-out: Plant response rating, Crabgrass, Large
Outline: as §1

[8] = test system: pigweed (Amaranthus retroflexus); settings: Amaranthus retroflexus, pre-emergence, 336 h, scale 0 to 100, read-out: Plant response rating, Pigweed
Outline: as §1

[9] = test system: ragweed (common ragweed, Ambrosia elatior); settings: Ambrosia artemisiifolia, pre-emergence, 336 h, scale 0 to 100, read-out: Plant response rating, Ragweed
Outline: as §1

soybean (Glycine max) = settings: Glycine max, pre-emergence, scale 0 to 100, read-out: Plant response rating, Soybean
Outline: as §1

[10] = test system: velvetleaf (Abutilon theophrasti); settings: Abutilon theophrasti, pre-emergence, scale 0 to 100, read-out: Plant response rating, Velvetleaf
Outline: as §1

[11] = test system: winter wheat (Triticum aestivum); settings: Triticum aestivum, pre-emergence, 336 h, scale 0 to 100, read-out: Plant response rating, Wheat
Outline: as §1

[12] = test system: yellow nutsedge (Cyperus esculentus); settings: Cyperus, pre-emergence, 336 h, scale 0 to 100, read-out: Plant response rating, Nutsedge, Yellow
Outline: as §1

## N#Cc1cccc(Oc2ncc(Cl)cn2)c1Oc1cnc(Cl)cn1 [Compound 32, 2-[(5-chloro-2-pyrazinyl)oxy]-3-[(5-chloro-2-pyrimidinyl)oxy]benzonitrile]
[1]; 31 g ai/ha, preemergence
  pest or weed control at 31 g/ha: 50%
[1]; 62 g ai/ha, preemergence
  pest or weed control at 62 g/ha: 80%
[1]; 125 g ai/ha, preemergence
  pest or weed control at 125 g/ha: 90%
[1]; Preemergence, 16 g ai/ha
  pest or weed control at 16 g/ha: 5%
[2]; 31 g ai/ha, preemergence, scale 0 to 100
  pest or weed control at 31 g/ha: 85%
[2]; 62 g ai/ha, preemergence, scale 0 to 100
  pest or weed control at 62 g/ha: 98%
[2]; 125 g ai/ha, preemergence, scale 0 to 100
  pest or weed control at 125 g/ha: 100%
[2]; Preemergence, 16 g ai/ha, scale 0 to 100 (0 no effect, 100 complete control)
  pest or weed control at 16 g/ha: 50%
[3]; 31 g ai/ha, preemergence
  pest or weed control at 31 g/ha: 70%
[3]; 62 g ai/ha, preemergence
  pest or weed control at 62 g/ha: 90%
[3]; 125 g ai/ha, preemergence
  pest or weed control at 125 g/ha: 95%
[3]; Preemergence, 16 g ai/ha
  pest or weed control at 16 g/ha: 0%
Corn (Zea mays); 31 g ai/ha, preemergence
  Corn plant response rating (crop injury, 0 = no effect, 100 = complete kill) at 31 g/ha: 60%
Corn (Zea mays); 62 g ai/ha, preemergence
  Corn plant response rating (crop injury, 0 = no effect, 100 = complete kill) at 62 g/ha: 65%
Corn (Zea mays); 125 g ai/ha, preemergence
  Corn plant response rating (crop injury, 0 = no effect, 100 = complete kill) at 125 g/ha: 65%
Corn (Zea mays); Preemergence, 16 g ai/ha
  Corn plant response rating (crop injury, 0 = no effect, 100 = complete kill) at 16 g/ha: 5%
[4]; 31 g ai/ha, preemergence
  pest or weed control at 31 g/ha: 98%
[4]; 62 g ai/ha, preemergence
  pest or weed control at 62 g/ha: 100%
[4]; 125 g ai/ha, preemergence
  pest or weed control at 125 g/ha: 100%
[4]; Preemergence, 16 g ai/ha
  pest or weed control at 16 g/ha: 85%
[5]; 31 g ai/ha, preemergence
  pest or weed control at 31 g/ha: 85%
[5]; 62 g ai/ha, preemergence
  pest or weed control at 62 g/ha: 100%
[5]; 125 g ai/ha, preemergence
  pest or weed control at 125 g/ha: 100%
[5]; Preemergence, 16 g ai/ha
  pest or weed control at 16 g/ha: 40%
[6]; 31 g ai/ha, preemergence
  pest or weed control at 31 g/ha: 90%
[6]; 62 g ai/ha, preemergence
  pest or weed control at 62 g/ha: 90%
[6]; 125 g ai/ha, preemergence
  pest or weed control at 125 g/ha: 100%
[6]; Preemergence, 16 g ai/ha
  pest or weed control at 16 g/ha: 60%
[7]; 31 g ai/ha, preemergence
  pest or weed control at 31 g/ha: 98%
[7]; 62 g ai/ha, preemergence
  pest or weed control at 62 g/ha: 100%
[7]; 125 g ai/ha, preemergence
  pest or weed control at 125 g/ha: 100%
[7]; Preemergence, 16 g ai/ha
  pest or weed control at 16 g/ha: 98%
[8]; 31 g ai/ha, preemergence
  pest or weed control at 31 g/ha: 100%
[8]; 62 g ai/ha, preemergence
  pest or weed control at 62 g/ha: 100%
[8]; 125 g ai/ha, preemergence
  pest or weed control at 125 g/ha: 100%
[8]; Preemergence, 16 g ai/ha
  pest or weed control at 16 g/ha: 100%
[9]; 31 g ai/ha, preemergence
  pest or weed control at 31 g/ha: 20%
[9]; 62 g ai/ha, preemergence
  pest or weed control at 62 g/ha: 10%
[9]; 125 g ai/ha, preemergence
  pest or weed control at 125 g/ha: 50%
[9]; Preemergence, 16 g ai/ha
  pest or weed control at 16 g/ha: 10%
Soybean (Glycine max); 31 g ai/ha, preemergence
  plant injury at 31 g/ha: 45%
Soybean (Glycine max); 62 g ai/ha, preemergence
  plant injury at 62 g/ha: 45%
Soybean (Glycine max); 125 g ai/ha, preemergence
  plant injury at 125 g/ha: 90%
Soybean (Glycine max); Preemergence, 16 g ai/ha
  plant injury at 16 g/ha: 55%
[10]; 31 g ai/ha, preemergence
  pest or weed control at 31 g/ha: 40%
[10]; 62 g ai/ha, preemergence
  pest or weed control at 62 g/ha: 75%
[10]; 125 g ai/ha, preemergence
  pest or weed control at 125 g/ha: 85%
[10]; Preemergence, 16 g ai/ha
  pest or weed control at 16 g/ha: 5%
[11]; 31 g ai/ha, preemergence
  plant injury at 31 g/ha: 0%
[11]; 62 g ai/ha, preemergence
  plant injury at 62 g/ha: 0%
[11]; 125 g ai/ha, preemergence
  plant injury at 125 g/ha: 5%
[11]; Preemergence, 16 g ai/ha
  plant injury at 16 g/ha: 0%
[12]; 31 g ai/ha, preemergence
  pest or weed control at 31 g/ha: 35%
[12]; 62 g ai/ha, preemergence
  pest or weed control at 62 g/ha: 60%
[12]; 125 g ai/ha, preemergence
  pest or weed control at 125 g/ha: 75%
[12]; Preemergence, 16 g ai/ha
  pest or weed control at 16 g/ha: 5%
